Article PMC10023787, “Trio-pharmacophore DNA-encoded chemical library for simultaneous selection of fragments and linkers” (Nature Communications, 2023)
Where two headings read alike, the source gives them in different places.

What was measured:
MMP-2 = biological target: T1, MMP-2 (Homo sapiens, UniProt P08253); test: MMP-2 inhibition assay (fluorogenic peptide substrate); type: biochemical; details: for IC50: n.d: not detected
T1 construct: purchased Sino Biological 10082-HNAH
T1 sequence (P08253 110-660): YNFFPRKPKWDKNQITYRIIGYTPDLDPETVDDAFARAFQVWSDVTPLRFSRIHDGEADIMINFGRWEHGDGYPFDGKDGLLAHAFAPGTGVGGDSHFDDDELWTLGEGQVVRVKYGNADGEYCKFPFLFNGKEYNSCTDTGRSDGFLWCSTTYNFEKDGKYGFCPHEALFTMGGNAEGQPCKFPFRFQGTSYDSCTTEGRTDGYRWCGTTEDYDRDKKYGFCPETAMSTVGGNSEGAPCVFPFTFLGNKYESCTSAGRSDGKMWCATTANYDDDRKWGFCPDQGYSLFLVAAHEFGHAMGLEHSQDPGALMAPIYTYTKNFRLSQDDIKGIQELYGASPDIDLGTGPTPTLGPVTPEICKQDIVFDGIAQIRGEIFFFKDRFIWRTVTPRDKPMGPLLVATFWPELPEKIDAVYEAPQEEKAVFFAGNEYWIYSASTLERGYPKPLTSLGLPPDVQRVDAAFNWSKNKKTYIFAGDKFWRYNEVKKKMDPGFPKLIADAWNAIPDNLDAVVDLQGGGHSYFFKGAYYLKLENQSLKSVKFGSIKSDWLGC
Method in brief: (§1)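 Human proMMP-2 and proMMP-9 were activated with 1 mM APMA for 2 h at 37 °C, then used at 6.5 nM (MMP-2) or 10 nM (MMP-9) final in Tris/NaCl/CaCl2/Brij 35 buffer, pH 7.5. After 30 min preincubation with compound at RT, 25 μM FRET peptide substrate was added and fluorescence (ex 280/em 360 nm) followed for 30 min. IC50 came from logistic fits of Vmax.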

MMP-9 = biological target: T2, MMP-9 (Homo sapiens, UniProt P14780); test: MMP-9 inhibition assay (fluorogenic peptide substrate); type: biochemical; parameters: remaining enzyme activity (% of control): scale not given here
T2 construct: purchased Sino Biological 10327-HNAH
Method in brief: as §1

[1] = mean ± SE, Fig. 5d unit inferred, µM, read-out: IC50
[2] = mean ± SE; n.d: not detected; Fig. 5e prints no unit, µM; read-out: IC50
[3] = Figure 5d, fragment combination joined by linker, read-out: MMP2 IC50
[4] = Figure 5d; fragment combination joined by linker; n.d: not detected; read-out: MMP9 IC50

T2 sequence (P14780 107-707 limits assumed): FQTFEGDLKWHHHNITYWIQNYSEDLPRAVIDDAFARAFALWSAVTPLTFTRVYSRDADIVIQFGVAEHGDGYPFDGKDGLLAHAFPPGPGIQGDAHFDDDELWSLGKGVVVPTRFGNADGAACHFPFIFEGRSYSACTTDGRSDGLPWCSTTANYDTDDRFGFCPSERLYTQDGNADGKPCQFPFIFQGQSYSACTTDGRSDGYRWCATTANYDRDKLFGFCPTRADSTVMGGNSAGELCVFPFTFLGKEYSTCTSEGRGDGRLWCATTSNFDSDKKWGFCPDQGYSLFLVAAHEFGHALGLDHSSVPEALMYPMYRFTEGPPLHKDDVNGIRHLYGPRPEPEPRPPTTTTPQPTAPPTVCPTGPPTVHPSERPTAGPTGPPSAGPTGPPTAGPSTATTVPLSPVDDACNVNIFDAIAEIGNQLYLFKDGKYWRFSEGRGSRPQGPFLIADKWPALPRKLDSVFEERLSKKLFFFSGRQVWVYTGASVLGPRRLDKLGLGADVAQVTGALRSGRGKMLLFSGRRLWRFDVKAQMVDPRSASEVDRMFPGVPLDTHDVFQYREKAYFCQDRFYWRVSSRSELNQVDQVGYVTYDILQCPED

With `O=C(/C=C/CCCCC(=O)NCc1c[nH]nn1)CC(=O)NCC12CC3CC(CC(C3)C1)C2` [66+787 Linker 12] the “remaining activity (%)” value (MMP-2; MMP-2, concentration 0.0111 µM) was 95.55, the “remaining activity (%)” value (MMP-2; MMP-2, concentration 0.0553 µM) was 86.42 and the “remaining activity (%)” value (MMP-2; MMP-2, concentration 0.28 µM) was 84.28. The “remaining activity (%)” value (MMP-2; MMP-2, concentration 1.38 µM) was 96.70, the “remaining activity (%)” value (MMP-2; MMP-2, concentration 6.91 µM) was 90.43 and the “remaining activity (%)” value (MMP-2; MMP-2, concentration 34.57 µM) was 98.71. For the same molecule, the “remaining activity (%)” value (MMP-2; MMP-2, concentration 172.86 µM) was 67.90, the “remaining activity (%)” value (MMP-2; MMP-2, concentration 864.30 µM) was 16.96 and the IC50 (MMP-2; [1]) was 339 ± 63.3 µM. For the same molecule, the “remaining enzyme activity (% of control)” value (MMP-9; MMP-9; concentration 0.0553 µM) was 94.85, the “remaining enzyme activity (% of control)” value (MMP-9; MMP-9; concentration 0.28 µM) was 91.07 and the “remaining enzyme activity (% of control)” value (MMP-9; MMP-9; concentration 1.38 µM) was 90.00. The “remaining enzyme activity (% of control)” value (MMP-9; MMP-9; concentration 6.91 µM) was 80.21, the “remaining enzyme activity (% of control)” value (MMP-9; MMP-9; concentration 34.57 µM) was 81.44 and the “remaining enzyme activity (% of control)” value (MMP-9; MMP-9; concentration 172.86 µM) was 37.12. For the same molecule, the “remaining enzyme activity (% of control)” value (MMP-9; MMP-9; concentration 864.30 µM) was 14.22 and the IC50 (MMP-9; [2]) was 115 ± 78.3 µM.
For `Cc1cc(=O)[nH]c(-n2nc(C)c(CCC(=O)NCc3c[nH]nn3)c2C)n1` [693+787 Linker 1], the “remaining activity (%)” value (MMP-2; MMP-2, concentration 0.0156 µM) was 96.66, the “remaining activity (%)” value (MMP-2; MMP-2, concentration 0.08 µM) was 98.78 and the “remaining activity (%)” value (MMP-2; MMP-2, concentration 0.39 µM) was 101.13. For the same molecule, the “remaining activity (%)” value (MMP-2; MMP-2, concentration 1.95 µM) was 92.82, the “remaining activity (%)” value (MMP-2; MMP-2, concentration 9.75 µM) was 86.30 and the “remaining activity (%)” value (MMP-2; MMP-2, concentration 48.76 µM) was 75.55. The “remaining activity (%)” value (MMP-2; MMP-2, concentration 243.80 µM) was 47.37, the “remaining activity (%)” value (MMP-2; MMP-2, concentration 1219.00 µM) was 8.68 and the IC50 (MMP-2; [1]) was 204 ± 37.3 µM. For the same molecule, the “remaining enzyme activity (% of control)” value (MMP-9; MMP-9; concentration 0.08 µM) was 91.27, the “remaining enzyme activity (% of control)” value (MMP-9; MMP-9; concentration 0.39 µM) was 99.91 and the “remaining enzyme activity (% of control)” value (MMP-9; MMP-9; concentration 1.95 µM) was 99.61. The “remaining enzyme activity (% of control)” value (MMP-9; MMP-9; concentration 9.75 µM) was 100.27, the “remaining enzyme activity (% of control)” value (MMP-9; MMP-9; concentration 48.76 µM) was 85.00 and the “remaining enzyme activity (% of control)” value (MMP-9; MMP-9; concentration 243.80 µM) was 58.59. The “remaining enzyme activity (% of control)” value (MMP-9; MMP-9; concentration 1219.00 µM) was 5.52 and the IC50 (MMP-9; [2]) was 312 ± 67.1 µM.
Work on `O=C(Cn1cnc2c(oc3ccccc32)c1=O)NCCNC(=O)c1cncc(O)c1` [182_828 1] yielded an IC50 (MMP-2; [3]) of 77.1 µM and an IC50 (MMP-9; [4]) of 92.1 µM.
`O=C(CSCCNC(=O)c1cncc(O)c1)NCCNC(=O)Cn1cnc2c(oc3ccccc32)c1=O` [182_828 24] was tested, and the IC50 (MMP-2; [3]) was 33.3 µM and the IC50 (MMP-9; [4]) was 35.3 µM.
With `O=C(CSCCNC(=O)Cn1cnc2c(oc3ccccc32)c1=O)NCc1c[nH]nn1` [182+787 Linker 24] the “remaining activity (%)” value (MMP-2; MMP-2, concentration 0.0171 µM) was 92.17, the “remaining activity (%)” value (MMP-2; MMP-2, concentration 0.0855 µM) was 86.66 and the “remaining activity (%)” value (MMP-2; MMP-2, concentration 0.43 µM) was 97.11. For the same molecule, the “remaining activity (%)” value (MMP-2; MMP-2, concentration 2.14 µM) was 88.49, the “remaining activity (%)” value (MMP-2; MMP-2, concentration 10.69 µM) was 87.27 and the “remaining activity (%)” value (MMP-2; MMP-2, concentration 53.44 µM) was 39.59. The “remaining activity (%)” value (MMP-2; MMP-2, concentration 267.20 µM) was 13.68, the IC50 (MMP-2; [1]) was 45.9 ± 16.2 µM and the “remaining enzyme activity (% of control)” value (MMP-9; MMP-9, concentration 0.0855 µM) was 86.26. The “remaining enzyme activity (% of control)” value (MMP-9; MMP-9, concentration 0.43 µM) was 83.15, the “remaining enzyme activity (% of control)” value (MMP-9; MMP-9, concentration 2.14 µM) was 95.29 and the “remaining enzyme activity (% of control)” value (MMP-9; MMP-9, concentration 10.69 µM) was 93.78. For the same molecule, the “remaining enzyme activity (% of control)” value (MMP-9; MMP-9, concentration 53.44 µM) was 70.78, the “remaining enzyme activity (% of control)” value (MMP-9; MMP-9, concentration 267.20 µM) was 19.03 and the IC50 (MMP-9; [2]) was 126 ± 9.6 µM.
For `O=C(Cn1cnc2c(oc3ccccc32)c1=O)NCCOCCOCCNC(=O)c1cncc(O)c1` [182_828 10], the IC50 (MMP-2; [3]) was 43 µM and the IC50 (MMP-9; [4]) was 99.6 µM.
For `O=C(Cn1cnc2c(oc3ccccc32)c1=O)NCCNC(=O)c1cncc(O)c1` [182+828 Linker 1], the “remaining activity (%)” value (MMP-2; MMP-2, concentration 0.00933 µM) was 100.18, the “remaining activity (%)” value (MMP-2; MMP-2, concentration 0.0466 µM) was 86.28 and the “remaining activity (%)” value (MMP-2; MMP-2, concentration 0.23 µM) was 84.03. For the same molecule, the “remaining activity (%)” value (MMP-2; MMP-2, concentration 5.83 µM) was 81.34, the “remaining activity (%)” value (MMP-2; MMP-2, concentration 29.14 µM) was 67.66 and the “remaining activity (%)” value (MMP-2; MMP-2, concentration 145.72 µM) was 34.11. The “remaining activity (%)” value (MMP-2; MMP-2, concentration 728.60 µM) was 8.96, the IC50 (MMP-2; [1]) was 77.1 ± 10 µM and the “remaining enzyme activity (% of control)” value (MMP-9; MMP-9, concentration 0.08 µM) was 88.36. For the same molecule, the “remaining enzyme activity (% of control)” value (MMP-9; MMP-9, concentration 0.42 µM) was 92.30, the “remaining enzyme activity (% of control)” value (MMP-9; MMP-9, concentration 2.10 µM) was 86.01 and the “remaining enzyme activity (% of control)” value (MMP-9; MMP-9, concentration 10.52 µM) was 90.65. For the same molecule, the “remaining enzyme activity (% of control)” value (MMP-9; MMP-9, concentration 52.60 µM) was 56.79, the “remaining enzyme activity (% of control)” value (MMP-9; MMP-9, concentration 263.00 µM) was 22.31 and the “remaining enzyme activity (% of control)” value (MMP-9; MMP-9, concentration 1315.00 µM) was 0.00. It also gave an IC50 (MMP-9; [2]) of 92.1 ± 28.2 µM.
